Test results published in US20100239556A1, “PROMOTING ECM PRODUCTION BY FIBROBLAST CELLS AND/OR PROMOTING MIGRATION OF FIBROBLAST CELLS IN A BIOLOGICAL SYSTEM” (TGR BioScience Pty Ltd., priority 2006, published 2010).

How the values were obtained:
[1] = system: human foreskin fibroblast cells (HFF); test: Soluble collagen I, III and VI in HFF conditioned media (direct coat ELISA); type: cell-based; details: for ECM protein levels in the media of HFF cells: 6 hour treatment, following 72 hours; for collagen I concentration in the media: ARP, HRP, SBP 12.5 μg/ml, LP 160 μg/ml, MP 250 μg/ml, untreated control 0.08 μg/ml; for collagen VI in the cell media: untreated control 0.03 ug/ml; for collagen VI levels: both 5 and 7 days
Protocol: Primary human foreskin fibroblast cells (HFF) were seeded into 96 well plates at a density of 1.2×10^4 cells/well and cultured overnight in 10% fetal bovine serum/Dulbecco's minimum essential media (10% FBS/DMEM) at 37° C. and 5% CO2. The cells were then starved overnight in serum free DMEM and triplicate wells treated for six hours with a range of doses of proteins with peroxidase activity; horse radish peroxidase (HRP; 0.2-50 ug/ml), Arthromyces ramosus peroxidase (ARP; 0.2-50 ug/ml), microperoxidase (MP; 8-500 ug/ml), soy bean peroxidase (SBP; 0.2-100 ug/ml) and lactoperoxidase (LP; 10-310 ug/ml) (all obtained from Sigma-Aldrich). At the end of the six hour treatment period, the media was aspirated and replaced with fresh serum free DMEM and the cells cultured for a further 72 hours. […] This assay measures the reduction of oxidized, blue nonfluorescent Alamar Blue reagent to a pink fluorescent dye in the cell medium, such that the higher the amount of reduction, the greater the cell number and/or activity (O'Brien Eur J Biochem 267 2000). Briefly, cells were bathed in a 10% Alamar Blue/phosphate-buffered saline (PBS) solution for 30-60 minutes and fluorescence measured at wavelengths of 485 nm excitation and 595 nm emission using a Wallac Victor Multilabel HTS counter. Relative fluorescent units (RFU) for each sample were normalized to control wells (DMEM only treated cells) and data expressed as mean±standard error of the mean (sem) for triplicate wells. Experiments were repeated at least three times with the combined data from all experiments shown.
The amount of soluble collagen types I, III, and VI in HFF conditioned media was measured by a direct coat ELISA method using standard curves constructed from purified human collagen I, III or VI (extracted from human placenta; col I, BD Biosciences; col III and VI, Rocklands Immunochemicals) and fibronectin (extracted from human plasma, Chemicon). Samples and standards (20 μl/well) were added to a 384 well spectraplate (Packard BioScience) and left at room temperature (RT) overnight. The spectraplate was then washed 6 times with PBS-tween 0.05% (PBS-T) and 2.5% bovine serum albumin (BSA)/PBS blocking solution added to each well and the plate incubated for 1 hour at RT. The plate was then washed 6 times with PBS-T and primary antibody (0.25 μg/ml rabbit-anti-human-collagen I polyclonal; 2 μg/ml rabbit-anti-human-collagen III polyclonal; 0.25 μg/ml rabbit-anti-human-collagen VI polyclonal; 0.2 μg/ml rabbit-anti-human-fibronectin polyclonal, all from Rockland Immunochemicals) in 5% non-fat dairy milk added to each well for four hours at RT. After washing (6×PBS-T), europium tagged anti-rabbit secondary antibody (0.5 μg/ml 1% BSA/PBS; Wallac Oy) was added for 1 hour at RT. After a final wash (6×PBS-T), enhancement solution was added for at least 10 minutes and fluorescence measured at excitation 340 nm and emission 615 nm using a Wallac Victor Multilabel HTS counter. The respective ECM concentration of each sample was determined from the standard curve (μg/ml) and normalized to control wells (DMEM only treated cells) with the mean±sem for triplicate wells calculated. Experiments were repeated at least three times with the combined data from all experiments shown.

[2] = system: dermis; test: Fibrogenic response after intradermal injection; type: in vivo, Sprague-Dawley rats
Protocol: Groups of up to 4-8 female Sprague-Dawley rats were lightly anaesthetized and the dorsum shaved. At different sites on their dorsum, each rat received a bolus, intradermal injection of 4 doses of a protein with peroxidase activity (LP, […]; HRP, 1.25-25 μg; SBP, 1.25-25 μg; or micro-peroxidase [MP], 5-125 μg), a vehicle control or TGFβ2 as a positive control. Arthromyces ramosus peroxidase (ARP) was also injected at one dose of 25 μg. Proteins with peroxidase activity were injected in a volume of 50 μl which was sufficient to create a small blister in the skin that resolved within a few minutes. Across the group of rats, each dose of proteins with peroxidase activity was injected into each of the different injection sites to control for any site-related, intra-rat variation. The rats were returned to their cage and left alone for 3 days after which they were killed by CO2 asphyxiation and the skin at the injection sites collected for analysis. The skin at the injection sites was excised using a 6 mm biopsy punch with each piece bisected and fixed in 10% buffered formalin. Fixed tissue was processed for histological assessment by graded dehydration and mounting in paraffin blocks. Blocks were sectioned and sections stained with haematoxylin and eosin (H&E) and Masson's trichrome for qualitative analysis by an experienced pathologist. H&E stained sections were scored for the “fibroblast reaction” (1+-4+) to reflect the number of fibroblast cells identified at the injection site, with 4+ representing the greatest response. H&E and Massons trichrome stained sections were used to evaluate the amount of deposited, collagen-rich extracellular matrix (ECM) that was associated with the fibroblast reaction at each injection site. The collagen-rich ECM deposition was scored 1+-3+ with 3+ representing the greatest response. The scores were combined across the group of rats and statistical analysis performed using a Kruskal-Wallis one way analysis of variance on ranks (ANOVA) followed by post-hoc t-test comparing the response of the proteins with peroxidase activity to the control using Dunn's or Dunnett's method, p<0.05 was considered significant.

[3] = intradermal, 3 days, over the doses tested

Substance	increase in collagen I compared to controls ([1]; 0.4 μg/ml, 72 hours) [fold]	ECM protein levels in the media of HFF cells [1]	collagen I concentration in the media ([1]; 5 days) [µg/mL]	collagen VI in the cell media ([1]; 7 days) [µg/mL]	collagen VI levels [1]	deposition of collagen-rich ECM versus control [2, 3]	fibroblast reaction / tissue fibroblast content at the injection site versus control [2, 3]	further results
Arthromyces ramosus peroxidase [ARP]	1.4	increased ECM protein levels dose dependently	0.6	0.11	increased the collagen VI levels	–	–	increase in collagen I compared to controls ([1]; 25 μg/ml, 72 hours): 5.8 fold; decrease in collagen III compared to control levels ([1]; 25 and 50 μg/ml, 72 hours): 50%; collagen I concentration in the media ([1]; 7 days): 0.6 µg/mL; increase in collagen III ([1]; any dose used, 72 hours): did not induce a significant increase; increase in collagen VI, steady state ([1]; doses between 6.25 and 50 μg/ml, 72 hours (ARP response not statistically significant, p=0.08)): 2 fold; deposition of collagen rich ECM, histology score (1+-3+) ([2]; 25 μg, 72 hours): two; fibroblast reaction, histology score (1+-4+) ([2]; 25 μg, 72 hours): two
soy bean peroxidase [SBP]	1.6	increased ECM protein levels dose dependently	–	0.09	increased the collagen VI levels	markedly increased	markedly increased the tissue fibroblast content	increase in collagen VI ([1]; 0.4 μg/ml, 72 hours): 1.2 fold; increase in collagen VI ([1]; 50 μg/ml, 72 hours): 5.4 fold; increase in collagen I compared to controls ([1]; 25 and 50 μg/ml, 72 hours): 10.5 fold; collagen III levels ([1]; 5 days, untreated control 0.11 μg/ml): 0.15 µg/mL; increase in collagen III, steady state ([1]; between 12.5 and 50 μg/ml, 72 hours): 2.1-2.3 fold; deposition of collagen-rich ECM versus control ([2]; 5-25 μg, 3 days, p<0.05): statistically significant response; tissue fibroblast content versus control ([2]; 5-25 μg, 3 days, p<0.05): statistically significant response
microperoxidase [MP]	–	increased ECM protein levels dose dependently	0.17	–	–	stimulated the deposition of collagen-rich ECM in a significant, dose dependent manner	significantly increased the tissue fibroblast content	increase in collagen VI ([1]; any dose used, 72 hours): did not induce a significant increase
